Broadly, the EC50 is the concentration at which the effect is half-maximal.

The assay deals with CXCR7 (Homo sapiens, UniProt P25106). Put plainly: competition of CXCL12-Gaussia luciferase binding to intact cells at […] °C. The format is cell-based.
CXCR7, sequence (P25106 whole entry): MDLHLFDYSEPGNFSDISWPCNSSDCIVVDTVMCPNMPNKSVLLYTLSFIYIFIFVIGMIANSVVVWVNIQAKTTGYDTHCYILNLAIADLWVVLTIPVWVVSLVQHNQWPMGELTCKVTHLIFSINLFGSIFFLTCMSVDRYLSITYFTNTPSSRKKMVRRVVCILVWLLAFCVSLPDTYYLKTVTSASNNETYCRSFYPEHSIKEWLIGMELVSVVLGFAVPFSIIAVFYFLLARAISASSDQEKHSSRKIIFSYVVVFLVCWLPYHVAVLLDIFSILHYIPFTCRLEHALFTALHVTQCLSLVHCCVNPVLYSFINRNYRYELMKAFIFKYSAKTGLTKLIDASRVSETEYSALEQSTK

For CCX733, the EC50 is ~0.018 µM.
As for CCX754, the EC50 is ~0.25 µM.

For the origin of these results see publication PMC4418468 (BioTechniques, 2009).
